Results reported in patent US20240398771A1, “TREATMENT OF SCLERODERMA AND RAYNAUD'S SYNDROME” (Aisa Pharma, Inc., priority 2023, published 2024).

How the values were obtained:
Type in all cases: in vivo, human
participants with SSc-RP [1] = assay: SHAQ Alternative Disability Index
Excerpt: The standard, validated, patient reported outcome measures tool for SSc patients, the Scleroderma Health Assessment Questionnaire (SHAQ), will be used to assess the participant qualify of life. Details are attached in the Appendix. The participant quality of life will be scored, and a disability index calculated for each questionnaire completed by the patient at Screening and each in-clinic visit. The absolute change in participant quality of life from baseline to the end of each dosing period will be calculated similar to frequency data as before.
The SHAQ is used to calculate a Disability Index to assess the participant qualify of life. The eight categories assessed by the Disability Index are 1) dressing and grooming, 2) arising, 3) eating, 4) walking, 5) hygiene, 6) reach, 7) grip, and 8) common daily activities. For each of these categories, patients report the amount of difficulty they have in performing two or three specific activities.
There are four possible responses for the Disability Index questions: • Without any difficulty=0 • With some difficulty=1 • With much difficulty=2 • Unable to do=3 • The highest score reported by the patient for any component question of the eight categories determines the score for that category. • If a component question is left blank or the response is too ambiguous to assign a score, then the score for that category is determined by the remaining completed question(s). • If all component questions are blank or if more than one answer is given, then follow up with the respondent is required. • If the respondent's mark is between the response columns, then move it to the closest one. If it's directly between the two, move it to the higher one.
The scoring variables and scoring rules permit the computation of two disability indices, the Standard Disability Index and the Alternative Disability Index.
The aid and device variables are not used to calculate the alternative disability index; it is calculated by adding the scores for each of the categories and dividing by the number of categories answered. This gives a score in the 0 to 3 range.

participants with SSc-RP [2] = assay: SHAQ Visual Analog Scale - Raynaud's; parameters: Visual Analog Scale-Raynaud's, Baseline, Mean / Visual Analog Scale-Raynaud's, Baseline, Median / Visual Analog Scale-Raynaud's, In Clinic Visit (Day 12), Mean / Visual Analog Scale-Raynaud's, In Clinic Visit (Day 12), Median: scale not given here; conditions: Modified ITT, Part A
Excerpt: The SHAQ includes a Raynaud's VAS, which will be reported at screening and each in-clinic visit. The absolute change in Raynaud-VAS, assessed by the participants response to the SHAQ question ‘In the past 7 days, how much have your Raynaud's interfered with your daily activities?’ at baseline and the end of each dosing period will be calculated similar to frequency data as before. […]

participants with SSc-RP [3] = assay: SHAQ Visual Analog Scale - overall disease severity; parameters: Overall Change in Severity, Baseline, Mean / Overall Change in Severity, Baseline, Median / Overall Change in Severity, Change from Baseline, Mean / Overall Change in Severity, Change from Baseline, Median: scale not given here
Protocol: Results: Patients in the study were administered the Scleroderma Health Assessment Questionnaire (SHAQ) at the time of study entry and during clinic visits following the treatment period. The study is a two-part, parallel arm design, prospective, double-blind, randomized study conducted in Australia (Flinders Medical Center). 27 patients were randomized into the first phase of the study, following which a DSMB meeting was held, which reviewed data on the primary study endpoint and key Raynaud's secondary endpoints. Data on the SHAQ was not available for the DSMB to review. The mITT population, in which any data was available post treatment was 24 patients was the analysis population for this first part of the study. The second part (i.e., part B) of the study will randomize 36 patients in a double blind, randomized, prospective, placebo controlled, crossover study. In the first part (i.e., Part A) of the study for which data is presented, patients were randomized into 6 groups, cilnidipine at two doses (10 and 20 mg) alone and in combination with tadalafil 5 mg, tadalafil 5 mg alone, and placebo. […] The DSMB recommended that the study proceed into its double blind prospective cross overpowered second phase and compare cilnidipine 20 mg alone to placebo. […] Cilnidipine treatment may reduce patient-reported SSc disease disability compared to placebo • b. Cilnidipine treatment may reduce patient-reported SSc disease alternative disability compared to placebo • c. Cilnidipine treatment may reduce patient-reported SSc disease pain* compared to placebo • d. Cilnidipine treatment may reduce patient-reported SSc disease severity compared to placebo • e. Cilnidipine treatment may reduce patient-reported SSc disease skin ulcer severity rating compared to placebo • f Cilnidipine treatment may reduce patient-reported SSc disease breathing difficulty compared to placebo • g. […] SSc disease pain comprises not only pain from Raynaud's but joint pain, headache, odynophagia, back pain, pain from skin ulceration, and neuropathic pain). Table E includes results of the Scleroderma Health Assessment Questionnaire.

[4] = Tadalafil 5 mg, Modified ITT, Part A
[5] = Cilnidipine 10 mg, Modified ITT, Part A
[6] = Cilnidipine 20 mg, Modified ITT, Part A
[7] = Pooled Cilnidipine (10 mg or 20 mg, N = 7), mITT Part A

CN1CC(=O)N2[C@H](c3ccc4c(c3)OCO4)c3[nH]c4ccccc4c3C[C@@H]2C1=O [Tadalafil]
Alternative disability index, Baseline, Mean (participants with SSc-RP [1]; [4]): 0.688 | Alternative disability index, Change from Baseline, Mean (participants with SSc-RP [1]; [4]): −0.071 | Alternative disability index, Change from Baseline, Median (participants with SSc-RP [1]; [4]): −0.063 | Alternative disability index, In Clinic Visit (Day 12), Mean (participants with SSc-RP [1]; [4]): 0.616 | Alternative disability index, In Clinic Visit (Day 12), Median (participants with SSc-RP [1]; [4]): 0.482 | Alternative disability index, Percent Change from Baseline, Mean (participants with SSc-RP [1]; [4]): 21.25% | Alternative disability index, Percent Change from Baseline, Median (participants with SSc-RP [1]; [4]): −7.69% | Visual Analog Scale-Raynaud's, Baseline, Median (participants with SSc-RP [2]; Tadalafil 5 mg): 0.500 | Visual Analog Scale-Raynaud's, Change from Baseline, Median (participants with SSc-RP [2]; Tadalafil 5 mg): −0.150 | Visual Analog Scale-Raynaud's, In Clinic Visit (Day 12), Mean (participants with SSc-RP [2]; Tadalafil 5 mg): 1.500 | Visual Analog Scale-Raynaud's, In Clinic Visit (Day 12), Median (participants with SSc-RP [2]; Tadalafil 5 mg): 0.400 | Visual Analog Scale-Raynaud's, Percent Change from Baseline, Mean (participants with SSc-RP [2]; Tadalafil 5 mg): −20.78% | Visual Analog Scale-Raynaud's, Percent Change from Baseline, Median (participants with SSc-RP [2]; Tadalafil 5 mg): −37.35% | Overall Change in Severity, Baseline, Mean (participants with SSc-RP [3]; [4]): 3.600 | Overall Change in Severity, Baseline, Median (participants with SSc-RP [3]; [4]): 2.550 | Overall Change in Severity, Change from Baseline, Mean (participants with SSc-RP [3]; [4]): −0.850 | Overall Change in Severity, Change from Baseline, Median (participants with SSc-RP [3]; [4]): −0.650 | Overall Change in Severity, In Clinic Visit (Day 12), Mean (participants with SSc-RP [3]; [4]): 2.750 | Overall Change in Severity, In Clinic Visit (Day 12), Median (participants with SSc-RP [3]; [4]): 1.500 | Overall Change in Severity, Percent Change from Baseline, Mean (participants with SSc-RP [3]; [4]): −31.76% | Overall Change in Severity, Percent Change from Baseline, Median (participants with SSc-RP [3]; [4]): −36.22%

COCCOC(=O)C1=C(C)NC(C)=C(C(=O)OC/C=C/c2ccccc2)C1c1cccc([N+](=O)[O-])c1 (stereo not shown) [Cilnidipine, 1,4-dihydro-2,6-dimethyl,4-(3-nitrophenyl)-3,5-pyridinedicarboxylic acid 2-methoxyethyl (2 E)-3-phenyl-2-propenyl ester]
Alternative disability index, Baseline, Mean (participants with SSc-RP [1]; [5]): 0.500 | Alternative disability index, Baseline, Median (participants with SSc-RP [1]; [6]): 0.250 | patient-reported SSc disease alternative disability compared to placebo (participants with SSc-RP [1]; Example 4, SHAQ, mITT Part A): may reduce | Visual Analog Scale-Raynaud's, Baseline, Mean (participants with SSc-RP [2]; Cilnidipine 10 mg): 1.600 | Visual Analog Scale-Raynaud's, Baseline, Median (participants with SSc-RP [2]; Cilnidipine 10 mg): 1.000 | Visual Analog Scale-Raynaud's, Change from Baseline, Median (participants with SSc-RP [2]; Cilnidipine 10 mg): 0.350 | Visual Analog Scale-Raynaud's, In Clinic Visit (Day 12), Median (participants with SSc-RP [2]; Cilnidipine 10 mg): 1.700 | Visual Analog Scale-Raynaud's, Baseline, Mean (participants with SSc-RP [2]; Cilnidipine 20 mg): 2.300 | Visual Analog Scale-Raynaud's, Baseline, Median (participants with SSc-RP [2]; Cilnidipine 20 mg): 2.500 | Visual Analog Scale-Raynaud's, Change from Baseline, Median (participants with SSc-RP [2]; Cilnidipine 20 mg): −1.100 | Visual Analog Scale-Raynaud's, In Clinic Visit (Day 12), Median (participants with SSc-RP [2]; Cilnidipine 20 mg): 1.100 | Visual Analog Scale-Raynaud's, Percent Change from Baseline, Median (participants with SSc-RP [2]; Cilnidipine 20 mg): −44.00% | Overall Change in Severity, Baseline, Median (participants with SSc-RP [3]; [5]): 1.900 | Overall Change in Severity, Change from Baseline, Mean (participants with SSc-RP [3]; [5]): −0.900 | Overall Change in Severity, Change from Baseline, Median (participants with SSc-RP [3]; [5]): −0.950 | Overall Change in Severity, Baseline, Median (participants with SSc-RP [3]; [6]): 2.900 | Overall Change in Severity, Change from Baseline, Median (participants with SSc-RP [3]; [6]): −1.600 | Overall Change in Severity, In Clinic Visit (Day 12), Median (participants with SSc-RP [3]; [6]): 1.200 | Overall Change in Severity, Percent Change from Baseline, Median (participants with SSc-RP [3]; [6]): −60.00% | patient-reported SSc disease severity compared to placebo (participants with SSc-RP [3]; Example 4, SHAQ, mITT Part A): may reduce | SHAQ patient reported disease severity: Baseline, Mean (SD) (participants with SSc-RP [3]; [7]): 2.700 (2.3424) | SHAQ patient reported disease severity: Baseline, Median (participants with SSc-RP [3]; [7]): 2.900
